Experimental data: US20120115793A1, “PEPTIDOMIMETIC MACROCYCLES” (Alleron Therapeutics, Inc, priority 2008, published 2012)
Where a SMILES comes first, the peptide text is derived from it. Bridges are numbered along the chain shown (N, C = ends). [ ]: non-standard residue; d: D form. S5 = C=CCCC[C@](C)(N)C(=O)O

Tested on: Molt-4 cell line
Format: cell-based
Conditions: 48 h
Experimental: Molt-4 cell line (ATCC catalog #CRL-1582) was grown in specific serum-supplemented media (RPMI-1640, Invitrogen catalog #72400) as recommended by ATCC. A day prior to the initiation of the study, cells were split at optimal cell density (2×10^5-5×10^5 cells/ml) to assure actively dividing cells. The next day, cells were washed twice in serum-free Opti-MEM media (Invitrogen, Catalog #51985) and cells were then plated at optimal cell density (10,000 cells/well) in 50 μl Opti-MEM media or Opti-MEM supplemented with 2%, 4% or 10% human serum (Bioreclamation, catalog #HMSRM) in 96-well white tissue culture plate (Nunc, catalog #136102).
For serum free experiment, peptidomimetic macrocycles were diluted from 2 mM stocks (100% DMSO) in sterile water to prepare 400 μM working solutions. The macrocycles and controls were diluted 10-fold first and then serially two-fold diluted in Opti-MEM in dosing plates to provide concentrations of between 1.2 and 40 μM. 50 μL of each dilution was then added to the appropriate wells of the test plate to achieve final concentrations of the polypeptides equal to between 0.6 to 20 μM. For studies using Opti-MEM supplemented with human serum (Bioreclamation, catalog #HMSRM), peptidomimetic macrocycles were diluted from 10 mM stocks (100% DMSO) in sterile water to prepare 2 mM working solutions. The peptide macrocycles and controls were diluted 10-fold first and then serially two-fold diluted in Opti-MEM in the presence of 2%, 4% or 10% of human serum to provide concentrations of the polypeptides equal to between 6.25 to 200 μM in dosing plates. 50 μL of each dilution was then added to the appropriate welts of the test plate to achieve final concentrations of the polypeptides equal to between 3.125 to 100 μM. Controls included wells without polypeptides containing the same concentration of DMSO as the wells containing the macrocycles, wells containing 0.1% Triton X-100 and wells containing no cells. Plates were incubated for 48 hours at 37° C. in humidified 5% CO2 atmosphere.
At the end of the incubation period, CellTiter-Glo assay was performed according to manufacturer's instructions (Promega, catalog #G7573) and luminescence was measured using Synergy HT Plate reader (BioTek).
The following macrocycles derived from the human MAML peptide sequences were tested in cell viability assays with the MOLT-4 tumor cell line: […]

CC[C@H](C)[C@H](NC(=O)[C@H](CCCNC(=N)N)NC(=O)[C@H](CCCNC(=N)N)NC(=O)[C@H](CCCNC(=N)N)NC(=O)[C@H](CC(C)C)NC(=O)[C@H](CCCNC(=N)N)NC(=O)[C@H](CCC(=O)O)NC(C)=O)C(=O)N[C@@H](CCC(=O)O)C(=O)N[C@@H](CC(C)C)C(=O)N[C@@H](CS)C(=O)N[C@@H](CCCNC(=N)N)C(=O)N[C@@H](CCCNC(=N)N)C(=O)N[C@@H](Cc1c[nH]cn1)C(=O)N[C@@H](Cc1c[nH]cn1)C(=O)N[C@@H](CO)C(=O)N[C@H](C(N)=O)[C@@H](C)O [Compound 2, Ac-ERLRRRIELCRRHHST-NH2] (Ac-ERLRRRIELCRRHHST-NH2)
EC50: > 20 µM

CC[C@H](C)[C@H](NC(=O)[C@H](CCCNC(=N)N)NC(=O)[C@H](CCCNC(=N)N)NC(=O)[C@H](CCCNC(=N)N)NC(=O)[C@H](CC(C)C)NC(=O)[C@H](C)NC(=O)[C@H](CCC(=O)O)NC(C)=O)C(=O)N[C@@]1(C)CCCC=CCCC[C@@](C)(C(=O)N[C@@H](Cc2c[nH]cn2)C(=O)N[C@@H](Cc2c[nH]cn2)C(=O)N[C@@H](CO)C(=O)N[C@H](C(N)=O)[C@@H](C)O)NC(=O)[C@H](C)NC(=O)[C@H](CS)NC(=O)[C@H](CC(C)C)NC1=O [Compound 7, Ac-EALRRRI$LCA$HHST-NH2] (Ac-EALRRRI[S5]LCA[S5]HHST-NH2; staple 8-12)
EC50: 11.5 µM

CC[C@H](C)[C@@H]1NC(=O)[C@H](CCCNC(=N)N)NC(=O)[C@H](CCCNC(=N)N)NC(=O)[C@@](C)(NC(=O)[C@H](CC(C)C)NC(=O)[C@H](CCC(=O)O)NC(=O)[C@H](CCCNC(=N)N)NC(C)=O)CCCC=CCCC[C@@](C)(C(=O)N[C@@H](CC(C)C)C(=O)N[C@@H](CS)C(=O)N[C@@H](CCCNC(=N)N)C(=O)N[C@@H](CCCNC(=N)N)C(=O)N[C@@H](Cc2c[nH]cn2)C(=O)N[C@@H](Cc2c[nH]cn2)C(=O)N[C@@H](CO)C(=O)N[C@H](C(N)=O)[C@@H](C)O)NC1=O [Compound 8, Ac-REL$RRI$LCRRHHST-NH2] (Ac-REL[S5]RRI[S5]LCRRHHST-NH2; staple 4-8)
EC50: 11.5 µM

CC[C@H](C)[C@H](NC(=O)[C@H](CCCNC(=N)N)NC(=O)[C@H](CCCNC(=N)N)NC(=O)[C@H](CCCNC(=N)N)NC(=O)[C@H](CC(C)C)NC(=O)[C@H](CCCNC(=N)N)NC(=O)[C@H](CCC(=O)O)NC(C)=O)C(=O)N[C@@]1(C)CCCC=CCCC[C@@](C)(C(=O)N[C@@H](Cc2c[nH]cn2)C(=O)N[C@@H](Cc2c[nH]cn2)C(=O)N[C@@H](CO)C(=O)N[C@H](C(=O)N[C@@H](CS)C(=O)N[C@@H](CCC(=O)O)C(=O)N[C@@H](C)C(=O)N[C@@H](CCCNC(=N)N)C(=O)N[C@@H](Cc2ccc(O)cc2)C(=O)N[C@@H](CCC(=O)O)C(=O)N[C@@H](C)C(=O)N[C@H](C(N)=O)C(C)C)[C@@H](C)O)NC(=O)[C@H](CCCNC(=N)N)NC(=O)[C@H](CS)NC(=O)[C@H](CC(C)C)NC1=O [Compound 15, Ac-ERLRRRI$LCR$HHSTCEARYEAV-NH2] (Ac-ERLRRRI[S5]LCR[S5]HHSTCEARYEAV-NH2; staple 8-12)
EC50: 2.2 µM

CC[C@H](C)[C@@H]1NC(=O)[C@@](C)(NC(=O)[C@H](CCCNC(=N)N)NC(=O)[C@H](CCCNC(=N)N)NC(=O)[C@H](CC(C)C)NC(=O)[C@H](CCCNC(=N)N)NC(=O)[C@H](CCC(=O)O)NC(C)=O)CCCC=CCCC[C@@](C)(C(=O)N[C@@H](CCCNC(=N)N)C(=O)N[C@@H](CCCNC(=N)N)C(=O)N[C@@H](Cc2c[nH]cn2)C(=O)N[C@@H](Cc2c[nH]cn2)C(=O)N[C@@H](CO)C(=O)N[C@H](C(N)=O)[C@@H](C)O)NC(=O)[C@H](CC(C)C)NC(=O)[C@H](CCC(=O)O)NC1=O [Compound 16, Ac-ERLRR$IEL$RRHHST-NH2] (Ac-ERLRR[S5]IEL[S5]RRHHST-NH2; staple 6-10)
EC50: 11.7 µM

CC[C@H](C)[C@H](NC(=O)[C@H](CCCNC(=N)N)NC(=O)[C@H](CCCNC(=N)N)NC(C)=O)C(=O)N[C@@H](CCC(=O)O)C(=O)N[C@@H](CC(C)C)C(=O)N[C@@H](C)C(=O)N[C@@H](CCCNC(=N)N)C(=O)N[C@@H](CCCNC(=N)N)C(=O)N[C@@H](Cc1c[nH]cn1)C(=O)N[C@@H](Cc1c[nH]cn1)C(=O)N[C@@]1(C)CCCC=CCCC[C@@](C)(C(=O)N[C@@H](CCCNC(=N)N)C(=O)N[C@@H](Cc2ccc(O)cc2)C(=O)N[C@@H](CCC(=O)O)C(=O)N[C@@H](C)C(=O)N[C@H](C(N)=O)C(C)C)NC(=O)[C@H](CCC(=O)O)NC(=O)[C@H](C)NC(=O)[C@H]([C@@H](C)O)NC1=O [Compound 17, Ac-RRIELARRHH$TAE$RYEAV-NH2] (Ac-RRIELARRHH[S5]TAE[S5]RYEAV-NH2; staple 11-15)
EC50: > 20 µM

CC[C@H](C)[C@H](NC(=O)[C@H](CCCNC(=N)N)NC(=O)[C@H](CCCNC(=N)N)NC(C)=O)C(=O)N[C@@H](CCC(=O)O)C(=O)N[C@@H](CC(C)C)C(=O)N[C@@H](C)C(=O)N[C@@H](CCCNC(=N)N)C(=O)N[C@@H](CCCNC(=N)N)C(=O)N[C@@]1(C)CCCC=CCCC[C@@](C)(C(=O)N[C@@H](CCC(=O)O)C(=O)N[C@@H](C)C(=O)N[C@@H](CCCNC(=N)N)C(=O)N[C@@H](Cc2ccc(O)cc2)C(=O)N[C@@H](CCC(=O)O)C(=O)N[C@@H](C)C(=O)N[C@H](C(N)=O)C(C)C)NC(=O)[C@H]([C@@H](C)O)NC(=O)[C@H](CO)NC(=O)[C@H](Cc2c[nH]cn2)NC1=O [Compound 18, Ac-RRIELARR$HST$EARYEAV-NH2] (Ac-RRIELARR[S5]HST[S5]EARYEAV-NH2; staple 9-13)
EC50: > 20 µM

CC[C@H](C)[C@H](NC(=O)[C@H](CCCNC(=N)N)NC(=O)[C@H](CCCNC(=N)N)NC(=O)[C@H](CCCNC(=N)N)NC(=O)[C@H](CC(C)C)NC(=O)[C@H](C)NC(C)=O)C(=O)N[C@@]1(C)CCCC=CCCC[C@@](C)(C(=O)N[C@@H](Cc2c[nH]cn2)C(=O)N[C@@H](Cc2c[nH]cn2)C(=O)N[C@@H](CO)C(=O)N[C@H](C(N)=O)[C@@H](C)O)NC(=O)[C@H](C)NC(=O)[C@H](C)NC(=O)[C@H](CC(C)C)NC1=O [Compound 20, Ac-ALRRRI$LAA$HHST-NH2] (Ac-ALRRRI[S5]LAA[S5]HHST-NH2; staple 7-11)
EC50: ≥ 24.4 µM

CC[C@H](C)[C@H](NC(=O)[C@H](CCCNC(=N)N)NC(=O)[C@H](CCCNC(=N)N)NC(=O)[C@H](CCCNC(=N)N)NC(=O)[C@H](CC(C)C)NC(=O)[C@H](C)NC(C)=O)C(=O)N[C@@]1(C)CCCC=CCCC[C@@](C)(C(=O)N[C@@H](Cc2c[nH]cn2)C(=O)N[C@@H](Cc2c[nH]cn2)C(=O)N[C@@H](CO)C(=O)N[C@H](C(N)=O)[C@@H](C)O)NC(=O)[C@H](C)NC(=O)[C@H](CO)NC(=O)[C@H](CC(C)C)NC1=O [Compound 21, Ac-ALRRRI$LSA$HHST-NH2] (Ac-ALRRRI[S5]LSA[S5]HHST-NH2; staple 7-11)
EC50: > 20 µM

CC[C@H](C)[C@H](NC(=O)[C@H](CCCNC(=N)N)NC(=O)[C@H](CCCNC(=N)N)NC(=O)[C@H](CCCNC(=N)N)NC(=O)[C@H](CC(C)C)NC(=O)[C@H](CCCNC(=N)N)NC(=O)[C@H](CCC(=O)O)NC(C)=O)C(=O)N[C@@H](CCC(=O)O)C(=O)N[C@@H](CC(C)C)C(=O)N[C@@H](C)C(=O)N[C@@H](C)C(=O)N[C@@H](CCCNC(=N)N)C(=O)N[C@@H](Cc1c[nH]cn1)C(=O)N[C@@H](Cc1c[nH]cn1)C(=O)N[C@@]1(C)CCCC=CCCC[C@@](C)(C(=O)N[C@@H](CCCNC(=N)N)C(=O)N[C@@H](Cc2ccc(O)cc2)C(=O)N[C@@H](CCC(=O)O)C(=O)N[C@@H](C)C(=O)N[C@H](C(N)=O)C(C)C)NC(=O)[C@H](CCC(=O)O)NC(=O)[C@H](C)NC(=O)[C@H]([C@@H](C)O)NC1=O [Compound 22, Ac-ERLRRRIELAARHH$TAE$RYEAV-NH2] (Ac-ERLRRRIELAARHH[S5]TAE[S5]RYEAV-NH2; staple 15-19)
EC50: > 20 µM
